Measured values reported in ChEMBL document CHEMBL1201862, “PubChem BioAssay data set” (2004).
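Where inhibition never reached the appropriate level, the endpoint shown equals the highest concentration tested. Otherwise, values were interpolated linearly from a five-concentration, 48-hour dose response in 96-well plates. At the GI50, growth is halved.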 The source made the active and inactive calls. Cut-off read from the data, not from the text of the source: active = GI50 up to about 1.1 µM and inactive = higher.

Columns and labels:
Assay in all cases: NCI tumour cell line growth inhibition, 48 h
HOP-62 = system: HOP-62
UACC-257 = system: UACC-257
MDA-MB-435 = system: MDA-MB-435
SK-MEL-28 = system: SK-MEL-28
EKVX = system: EKVX
HT-29 = system: HT-29
K562 = system: K562
SNB-19 = system: SNB-19
OVCAR-8 = system: OVCAR-8
SF-295 = system: SF-295
SK-MEL-5 = system: SK-MEL-5
SF-268 = system: SF-268
OVCAR-5 = system: OVCAR-5
Hs-578T = system: Hs-578T
HCC 2998 = system: HCC 2998
CCRF-CEM = system: CCRF-CEM
786-0 = system: 786-0
NCI-H460 = system: NCI-H460
SN12C = system: SN12C
SR = system: SR
SF-539 = system: SF-539
SK-OV-3 = system: SK-OV-3
SW-620 = system: SW-620
MOLT-4 = system: MOLT-4
TK-10 = system: TK-10
COLO 205 = system: COLO 205
HCT-15 = system: HCT-15
MDA-N = system: MDA-N
MCF7 = system: MCF7
HL-60 = system: HL-60
A549 = system: A549
M14 = system: M14
ACHN = system: ACHN
SNB-75 = system: SNB-75
T47D = system: T47D
MDA-MB-231 = system: MDA-MB-231
KM12 = system: KM12
PC-3 = system: PC-3
UO-31 = system: UO-31
HCT-116 = system: HCT-116
U-251 = system: U-251
NCI-H522 = system: NCI-H522
IGROV-1 = system: IGROV-1
NCI/ADR-RES = system: NCI/ADR-RES
OVCAR-4 = system: OVCAR-4
RPMI-8226 = system: RPMI-8226
A498 = system: A498
OVCAR-3 = system: OVCAR-3
LOX IMVI = system: LOX IMVI
DU-145 = system: DU-145
CAKI-1 = system: CAKI-1
SK-MEL-2 = system: SK-MEL-2
NCI-H226 = system: NCI-H226
NCI-H23 = system: NCI-H23
Malme-3M = system: Malme-3M
RXF 393 = system: RXF 393
HOP-92 = system: HOP-92
UACC-62 = system: UACC-62

`CC1=CC(=O)/C(=C(/C)NCCN(CCN/C(C)=C2\C(=O)C=C(C)OC2=O)CCN/C(C)=C2\C(=O)C=C(C)OC2=O)C(=O)O1` was tested. Which GI50 (HOP-62) did it give?
Its GI50 is > 100 µM (inactive).

What about the GI50 (UACC-257) of the same compound?
The GI50 was > 100 µM (inactive).

And the GI50 (MDA-MB-435)?
The GI50 was > 100 µM (inactive).

What about the GI50 (SK-MEL-28) of the same compound?
The GI50 was > 100 µM (inactive).

What about the GI50 (EKVX) of the same compound?
The GI50 was > 100 µM (inactive).

What about the GI50 (HT-29) of the same compound?
Its GI50 is > 100 µM (inactive).

And the GI50 (K562)?
Its GI50 is > 100 µM (inactive).

And the GI50 (SNB-19)?
Its GI50 is > 100 µM (inactive).

What about the GI50 (OVCAR-8) of the same compound?
The GI50 was > 100 µM (inactive).

And the GI50 (SF-295)?
The GI50 was > 100 µM (inactive).

And the GI50 (SK-MEL-5)?
Its GI50 is > 100 µM (inactive).

What about the GI50 (SF-268) of the same compound?
The GI50 was > 100 µM (inactive).

And the GI50 (OVCAR-5)?
The GI50 was > 100 µM (inactive).

And the GI50 (Hs-578T)?
The GI50 was > 100 µM (inactive).

And the GI50 (HCC 2998)?
The GI50 was > 100 µM (inactive).

And the GI50 (CCRF-CEM)?
Its GI50 is > 100 µM (inactive).

What about the GI50 (786-0) of the same compound?
The GI50 was > 100 µM (inactive).

What about the GI50 (NCI-H460) of the same compound?
Its GI50 is > 100 µM (inactive).

And the GI50 (SN12C)?
The GI50 was > 100 µM (inactive).

And the GI50 (SR)?
The GI50 was > 100 µM (inactive).

And the GI50 (SF-539)?
Its GI50 is > 100 µM (inactive).

And the GI50 (SK-OV-3)?
The GI50 was > 100 µM (inactive).

And the GI50 (SW-620)?
The GI50 was > 100 µM (inactive).

And the GI50 (MOLT-4)?
Its GI50 is > 100 µM (inactive).

What about the GI50 (TK-10) of the same compound?
The GI50 was > 100 µM (inactive).

What about the GI50 (COLO 205) of the same compound?
Its GI50 is > 100 µM (inactive).

And the GI50 (HCT-15)?
The GI50 was greater than 100 µM.

And the GI50 (MDA-N)?
Its GI50 is > 100 µM (inactive).

And the GI50 (MCF7)?
Its GI50 is > 100 µM (inactive).

And the GI50 (HL-60)?
The GI50 was > 100 µM (inactive).

And the GI50 (A549)?
The GI50 was > 100 µM (inactive).

What about the GI50 (M14) of the same compound?
The GI50 was > 100 µM (inactive).

And the GI50 (ACHN)?
The GI50 was > 100 µM (inactive).

And the GI50 (SNB-75)?
The GI50 was > 100 µM (inactive).

What about the GI50 (T47D) of the same compound?
Its GI50 is > 100 µM (inactive).

What about the GI50 (MDA-MB-231) of the same compound?
Its GI50 is > 100 µM (inactive).

What about the GI50 (KM12) of the same compound?
Its GI50 is > 100 µM (inactive).

And the GI50 (PC-3)?
Its GI50 is > 100 µM (inactive).

And the GI50 (UO-31)?
Its GI50 is > 100 µM (inactive).

What about the GI50 (HCT-116) of the same compound?
Its GI50 is > 100 µM (inactive).

What about the GI50 (U-251) of the same compound?
Its GI50 is > 100 µM (inactive).

And the GI50 (NCI-H522)?
Its GI50 is > 100 µM (inactive).

What about the GI50 (IGROV-1) of the same compound?
Its GI50 is > 100 µM (inactive).

And the GI50 (NCI/ADR-RES)?
The GI50 was > 100 µM (inactive).

And the GI50 (OVCAR-4)?
Its GI50 is > 100 µM (inactive).

And the GI50 (RPMI-8226)?
The GI50 was > 100 µM (inactive).

`Nc1ncnc2c(C3OC(CO)C(O)C3O)nsc12` (stereo not drawn) was tested. Which GI50 (A498) did it give?
The GI50 was < 0.0115 µM (active).

Which GI50 (HOP-62) does the source give for `C=C1N(C=O)C(C)(C)N(O)C1(C)C` here?
Its GI50 is > 100 µM (inactive).

And the GI50 (UACC-257)?
Its GI50 is > 100 µM (inactive).

And the GI50 (MDA-MB-435)?
The GI50 was > 100 µM (inactive).

What about the GI50 (SK-MEL-28) of the same compound?
The GI50 was > 100 µM (inactive).

And the GI50 (OVCAR-3)?
Its GI50 is > 100 µM (inactive).

What about the GI50 (LOX IMVI) of the same compound?
The GI50 was > 100 µM (inactive).

And the GI50 (EKVX)?
Its GI50 is > 100 µM (inactive).

What about the GI50 (HT-29) of the same compound?
The GI50 was > 100 µM (inactive).

And the GI50 (SNB-19)?
The GI50 was > 100 µM (inactive).

What about the GI50 (OVCAR-8) of the same compound?
Its GI50 is > 100 µM (inactive).

What about the GI50 (DU-145) of the same compound?
The GI50 was > 100 µM (inactive).

What about the GI50 (SF-295) of the same compound?
Its GI50 is > 100 µM (inactive).

What about the GI50 (SK-MEL-5) of the same compound?
Its GI50 is > 100 µM (inactive).

What about the GI50 (SF-268) of the same compound?
The GI50 was > 100 µM (inactive).

And the GI50 (OVCAR-5)?
Its GI50 is > 100 µM (inactive).

What about the GI50 (Hs-578T) of the same compound?
Its GI50 is > 100 µM (inactive).

What about the GI50 (HCC 2998) of the same compound?
Its GI50 is > 100 µM (inactive).

And the GI50 (786-0)?
The GI50 was > 100 µM (inactive).

What about the GI50 (CAKI-1) of the same compound?
The GI50 was > 100 µM (inactive).

And the GI50 (NCI-H460)?
Its GI50 is > 100 µM (inactive).

What about the GI50 (SN12C) of the same compound?
The GI50 was > 100 µM (inactive).

What about the GI50 (SF-539) of the same compound?
Its GI50 is > 100 µM (inactive).

And the GI50 (SK-MEL-2)?
Its GI50 is > 100 µM (inactive).

And the GI50 (SK-OV-3)?
The GI50 was > 100 µM (inactive).

What about the GI50 (SW-620) of the same compound?
The GI50 was > 100 µM (inactive).

What about the GI50 (MOLT-4) of the same compound?
Its GI50 is 29.1 µM (inactive).

And the GI50 (NCI-H226)?
Its GI50 is > 100 µM (inactive).

And the GI50 (TK-10)?
Its GI50 is > 100 µM (inactive).

What about the GI50 (COLO 205) of the same compound?
Its GI50 is > 100 µM (inactive).

And the GI50 (HCT-15)?
Its GI50 is greater than 100 µM.

What about the GI50 (NCI-H23) of the same compound?
The GI50 was > 100 µM (inactive).

And the GI50 (Malme-3M)?
Its GI50 is > 100 µM (inactive).

And the GI50 (MCF7)?
Its GI50 is > 100 µM (inactive).

What about the GI50 (A549) of the same compound?
The GI50 was > 100 µM (inactive).

And the GI50 (M14)?
The GI50 was > 100 µM (inactive).

What about the GI50 (ACHN) of the same compound?
Its GI50 is > 100 µM (inactive).

What about the GI50 (SNB-75) of the same compound?
The GI50 was > 100 µM (inactive).

And the GI50 (T47D)?
The GI50 was > 100 µM (inactive).

What about the GI50 (MDA-MB-231) of the same compound?
Its GI50 is > 100 µM (inactive).

And the GI50 (KM12)?
The GI50 was > 100 µM (inactive).

What about the GI50 (PC-3) of the same compound?
Its GI50 is > 100 µM (inactive).

What about the GI50 (RXF 393) of the same compound?
Its GI50 is > 100 µM (inactive).

What about the GI50 (UO-31) of the same compound?
Its GI50 is > 100 µM (inactive).

What about the GI50 (HCT-116) of the same compound?
Its GI50 is > 100 µM (inactive).

And the GI50 (HOP-92)?
The GI50 was > 100 µM (inactive).

What about the GI50 (UACC-62) of the same compound?
Its GI50 is > 100 µM (inactive).

What about the GI50 (U-251) of the same compound?
The GI50 was > 100 µM (inactive).

And the GI50 (IGROV-1)?
The GI50 was > 100 µM (inactive).

And the GI50 (NCI/ADR-RES)?
The GI50 was > 100 µM (inactive).

And the GI50 (OVCAR-4)?
The GI50 was > 100 µM (inactive).

What about the GI50 (RPMI-8226) of the same compound?
The GI50 was > 100 µM (inactive).
